# Measurements reported in ChEMBL document CHEMBL4823282, “Novel Broad-Spectrum Antimicrobial Peptide Derived from Anoplin and Its Activity on Bacterial Pneumonia in Mice” (J Med Chem, 2021).
# pIC50: −log10 of the molar value. Active and inactive are the calls of the source. The calls are words filed in the database; no cut-off is given here. Where a SMILES comes first, the peptide text is derived from it. Bridges are numbered along the chain shown (N, C = ends). [ ]: non-standard residue; d: D form. The star is where a group is joined. X1 = CC[C@H](C)CCCCC(=O)*; Dab = NCC[C@H](N)C(=O)O
# Legend:
# Staphylococcus aureus [1] = test: Antibacterial activity against Staphylococcus aureus ATCC 25923 incubated for 18 hrs by CLSI based broth dilution method; format: functional
# Bacillus subtilis = test: Antibacterial activity against Bacillus subtilis ATCC 23857 incubated for 18 hrs by CLSI based broth dilution method; format: functional
# Enterococcus faecalis = test: Antibacterial activity against Enterococcus faecalis ATCC 29212 incubated for 18 hrs by CLSI based broth dilution method; format: functional
# [2] = test system: Staphylococcus epidermidis; test: Antibacterial activity against Staphylococcus epidermidis ATCC 12228 incubated for 18 hrs by CLSI based broth dilution method; format: functional
# Escherichia coli [3] = test: Antibacterial activity against Escherichia coli ATCC 25922 incubated for 18 hrs by CLSI based broth dilution method; format: functional
# Pseudomonas aeruginosa [4] = test: Antibacterial activity against Pseudomonas aeruginosa ATCC 27853 incubated for 18 hrs by CLSI based broth dilution method; format: functional
# Klebsiella pneumoniae [5] = test: Antibacterial activity against Klebsiella pneumoniae ATCC 700603 incubated for 18 hrs by CLSI based broth dilution method; format: functional
# Acinetobacter baumannii = test: Antibacterial activity against Acinetobacter baumannii ATCC 19606 incubated for 18 hrs by CLSI based broth dilution method; format: functional; settings: ATCC 19606 = CIP 70.34 = JCM 6841
# Erythrocyte = test: Hemolytic activity in BALB/C mouse erythrocytes incubated for 1 hr by absorbance method; format: ADME, cell-based
# [6] = Cytotoxicity against human glomerular mesangial cells incubated for 12 hrs by MTT assay; format: cell-based; settings: Glomerular mesangial cell
# Cell membrane [7] = test: Disruption of membrane integrity in Staphylococcus aureus ATCC 25923 assessed as membrane shrinking at 1 times MIC measured within 0.5 hrs by scanning electron microscopy; format: subcellular
# Pseudomonas aeruginosa [8] = test: Antibacterial activity against gentamicin-resistant Pseudomonas aeruginosa ATCC 27853 incubated for 18 hrs by CLSI based broth dilution method; format: functional
# Bacteria [9] = test: Antibacterial activity against bacteria incubated for 18 hrs by CLSI based broth dilution method; format: functional
# Fungi = test: Antibacterial activity against fungi incubated for 18 hrs by CLSI based broth dilution method; format: functional
# [10] = Selectivity ratio of MHC10 for BALB/C mouse erythrocytes to MIC for bacteria; format: toxicity
# [11] = Selectivity ratio of MHC10 for BALB/C mouse erythrocytes to MIC for fungi; format: toxicity
# Bacteria [12] = test: Antibacterial activity against Gram-positive bacteria incubated for 18 hrs by CLSI based broth dilution method; format: functional
# [13] = Selectivity ratio of MHC10 for BALB/C mouse erythrocytes to MIC for gram positive bacteria; format: toxicity
# Bacteria [14] = test: Antibacterial activity against Gram-negative bacteria incubated for 18 hrs by CLSI based broth dilution method; format: functional
# [15] = Selectivity ratio of MHC10 for BALB/C mouse erythrocytes to MIC for gram-negative bacteria; format: toxicity
# Staphylococcus aureus [16] = test: Bactericidal activity against Staphylococcus aureus ATCC 25923 at 2MIC by time-kill assay; format: functional, organism-based; settings: time 24.0 hrs, TDE = time-dependent effect
# Klebsiella pneumoniae [17] = test: Bactericidal activity against Klebsiella pneumoniae 700603 at 2MIC by time-kill assay relative to control; format: functional
# Cell membrane [18] = test: Induction of inner membrane permeabilization in Klebsiella pneumoniae ATCC 700603 at 0.5 to 4MIC using ONPG as substrate by spectroscopic method; format: subcellular; settings: Klebsiella pneumoniae 700603, 0.5 to 4M
# Staphylococcus aureus [19] = test: Antibacterial activity against Staphylococcus aureus ATCC 25923 at 0.5 to 1 times MIC incubated for 24 hrs by crystal violet staining based assay; format: functional, organism-based
# Lipopolysaccharide (LPS) = test: Binding affinity to LPS (unknown origin) assessed as bacterial killing at 2 times MIC preincubated for 1 hr followed by Escherichia coli ATCC 25922 addition and measured after 2 hrs by absorbance method; settings: time 3.0 hrs
# Staphylococcus aureus [20] = test: Disruption of membrane integrity in Staphylococcus aureus ATCC 25923 assessed as membrane blebbing at 1 times MIC measured within 0.5 hrs by scanning electron microscopy; format: functional, organism-based
# Cell membrane [21] = test: Disruption of membrane integrity in Staphylococcus aureus ATCC 25923 assessed as bacterial death at 1 times MIC measured within 0.5 hrs by scanning electron microscopy; format: subcellular
# Cell membrane [22] = test: Disruption of membrane integrity in Klebsiella pneumoniae ATCC 700603 assessed as bacterial death at 1 times MIC incubated for 0.5 to 2 hrs by scanning electron microscopy; format: subcellular; settings: Klebsiella pneumoniae 700603, time 0.5-2 hrs
# Staphylococcus aureus [23] = test: Disruption of bacterial cell membrane in Staphylococcus aureus ATCC 25923 assessed as increase in PI uptake incubated for 30 to 120 mins by FACS flow cytometry; format: functional, organism-based; settings: time 30-120 min
# Pseudomonas aeruginosa [24] = test: Synergistic antibacterial activity against Pseudomonas aeruginosa ATCC 27853 at 2 times MIC incubated for 18 to 24 hrs in presence of 2 times MIC of rifampicin by broth microdilution assay based checkerboard assay; format: functional; settings: time 18-24 hrs
# Escherichia coli [25] = test: Synergistic antibacterial activity against Escherichia coli ATCC 25922 at 2 times MIC incubated for 18 to 24 hrs in presence of 2 times MIC of rifampicin by broth microdilution assay based checkerboard assay; format: functional; settings: time 18-24 hrs
# Klebsiella pneumoniae [26] = test: Synergistic antibacterial activity against Klebsiella pneumoniae ATCC 700603 at 2 times MIC incubated for 18 to 24 hrs in presence of 2 times MIC of rifampicin by broth microdilution assay based checkerboard assay; format: functional; settings: time 18-24 hrs
# Klebsiella pneumoniae [27] = test: Synergistic antibacterial activity against Klebsiella pneumoniae ATCC 700603 at 2 times MIC incubated for 18 to 24 hrs in presence of 2 times MIC of gentamycin by broth microdilution assay based checkerboard assay; format: functional; settings: time 18-24 hrs
# Pseudomonas aeruginosa [28] = test: Antibacterial activity against rifampin-resistant Pseudomonas aeruginosa ATCC 27853 incubated for 18 hrs by CLSI based broth dilution method; format: functional
# Klebsiella pneumoniae [29] = test: Antibacterial activity against Klebsiella pneumoniae ATCC 700603 infected in BALB/C mouse assessed as reduction in bacterial load in lung at 5 mg/kg, ip measured within 24 hrs by agar plate counting method (reference value: 2.77 x 10^7 CFU/mg); format: functional
# [30] = Toxicity in ip dosed BALB/C mouse measured within 14 days by Karber-method; format: organism-based; settings: in vivo, time 14 day
# [31] = Toxicity in BALB/C mouse assessed as mouse death at 15 to 25 mg/kg, ip measured within 2 days; format: organism-based; settings: in vivo, 48 h, dose 15-25 mg/kg, time 2 day
# [32] = Toxicity in BALB/C mouse assessed as mouse death at 15 to 25 mg/kg, ip measured after 24 hrs; format: organism-based; settings: in vivo, dose 15-25 mg/kg
# Cell membrane [33] = test: Induction of outer membrane permeabilization in Klebsiella pneumoniae ATCC 700603 at 4MIC measured within 20 mins by N-phenylnaphthylamine dye based fluorescent method; format: subcellular; settings: Klebsiella pneumoniae 700603
# Cell membrane [34] = test: Disruption of membrane integrity in Klebsiella pneumoniae ATCC 700603 assessed as membrane cracking at 1 times MIC incubated for 0.5 to 2 hrs by scanning electron microscopy; format: subcellular; settings: Klebsiella pneumoniae 700603, time 0.5-2 hrs
# Klebsiella pneumoniae [35] = test: Antibacterial activity against Klebsiella pneumoniae ATCC 700603 infected in BALB/C mouse assessed as reduction in bacterial load at 5 mg/kg, ip by hematoxylin and eosin staining based assay; format: functional, organism-based
# [36] = 2M, TDE = time-dependent effect
SMILES,MIC (Staphylococcus aureus [1]) [µM],MIC (Bacillus subtilis) [µM],MIC (Enterococcus faecalis) [µM],MIC [2] [µM],MIC (Escherichia coli [3]) [µM],MIC (Pseudomonas aeruginosa [4]) [µM],MIC (Klebsiella pneumoniae [5]) [µM],MIC (Acinetobacter baumannii) [µM],MHC10 (Erythrocyte),pIC50 [6],Activity (Cell membrane [7]),MIC (Pseudomonas aeruginosa [8]) [µM],MIC (Bacteria [9]) [µM],MIC (Fungi) [µM],selectivity ratio [10],selectivity ratio [11],MIC (Bacteria [12]) [µM],selectivity ratio at 18 h [13],MIC (Bacteria [14]) [µM],selectivity ratio [15],further results
NCCCC[C@H](NC(=O)[C@H](CCCCN)NC(=O)[C@H](Cc1c[nH]c2ccccc12)NC(=O)[C@H](CCCCN)NC(=O)[C@H](CCCCN)NC(=O)[C@H](Cc1c[nH]c2ccccc12)NC(=O)[C@H](Cc1c[nH]c2ccccc12)NC(=O)[C@@H](N)CCCCN)C(=O)N[C@@H](Cc1c[nH]c2ccccc12)C(=O)N[C@@H](Cc1c[nH]c2ccccc12)C(N)=O (H-KWWKKWKKWW-NH2),4,4,8,4,4,4,8,8,134.38 µM,4.40,Active,2,4.76,4.76,28.2,28.2,4.76,28.2,4.76,28.2,Activity (Staphylococcus aureus [16]): Tde; Activity (Klebsiella pneumoniae [17]): 100%; Activity (Klebsiella pneumoniae [17]; [36]): Tde; Activity (Cell membrane [18]): inactive; Activity (Staphylococcus aureus [19]): Active; Activity (Lipopolysaccharide (LPS)): Dose-Dependent Effect; Activity (Staphylococcus aureus [20]): Active; Activity (Cell membrane [21]): Active; Activity (Cell membrane [22]): Active; Activity (Staphylococcus aureus [23]): Active; FIC (Pseudomonas aeruginosa [24]): 0.5625; FIC (Escherichia coli [25]): 0.75; FIC (Klebsiella pneumoniae [26]): 0.3125; FIC (Klebsiella pneumoniae [27]): 0.5625; MIC (Pseudomonas aeruginosa [28]): 2 µM; Activity (Klebsiella pneumoniae [29]): 4.12 10^4CFU/mg; LD50 at 336 h [30]: 66.5 mg/kg; Activity [31]: Toxic; Activity [32]: Toxic
CC[C@H](C)CCCCC(=O)N[C@@H](CCN)C(=O)N[C@H](C(=O)N[C@@H](CCN)C(=O)N[C@H]1CCNC(=O)[C@H]([C@@H](C)O)NC(=O)[C@H](CCN)NC(=O)[C@H](CCN)NC(=O)[C@H](CC(C)C)NC(=O)[C@@H](Cc2ccccc2)NC(=O)[C@H](CCN)NC1=O)[C@@H](C)O (X1-[Dab]T[Dab][Dab][Dab][dF]L[Dab][Dab]T; lactam 4-C),16,8,128,32,4,4,4,32,>= 512 uM,≤ 3.29,inactive,2,12.3,12.3,4150,4150,26.9,19,5.66,90.5,Activity (Staphylococcus aureus [16]): Tde; Activity (Klebsiella pneumoniae [17]; [36]): Tde; Activity (Cell membrane [33]): Active; Activity (Cell membrane [18]): inactive; Activity (Staphylococcus aureus [19]): Active; Activity (Lipopolysaccharide (LPS)): Dose-Dependent Effect; Activity (Staphylococcus aureus [20]): inactive; Activity (Cell membrane [21]): inactive; Activity (Cell membrane [34]): Active; Activity (Cell membrane [22]): Active; Activity (Staphylococcus aureus [23]): inactive; FIC (Pseudomonas aeruginosa [24]): 0.3125; FIC (Escherichia coli [25]): 0.125; FIC (Klebsiella pneumoniae [26]): 0.3125; FIC (Klebsiella pneumoniae [27]): 0.5; MIC (Pseudomonas aeruginosa [28]): 2 µM; Activity (Klebsiella pneumoniae [29]): 3.21 10^4CFU/ml; Activity (Klebsiella pneumoniae [35]): inactive; LD50 at 336 h [30]: 16.4 mg/kg; Activity [31]: Toxic
